# Assay: in vitro
# Conditions: human, hela cells
Structure (SMILES),"viability at 28.5 h, 10 µM (% viability)","viability at 28.5 h, 10 µM"
CC(C)(O)C#Cc1ccc(C(=O)NC(Cc2c[nH]c3ccccc23)C(=O)O)cc1 (stereo not shown) [CBK267703],96.5%,
Cc1noc(C)c1CC(=O)N(C)CCN1CCCCC1 [CBK281855],88.8%,
O=c1[nH]c2cc(Cl)cc(Cl)c2o1 [CBK015711],90.6%,
O=C(CN1CCC(Cc2ccccc2)CC1)Nc1ccc(S(=O)(=O)N2CCOCC2)cc1 [CBK268451],102%,
O=C(N/C(=C/c1ccccc1)C(=O)N1CCCCC1)c1ccccc1 [CBK261280],94.7%,
N#Cc1ccc(-c2cnc(NC(=O)C(F)(F)F)c(-c3ccc(C(=O)N4CCOCC4)cc3)n2)cc1 [CBK093819],94.2%,
Cc1ccccc1NS(=O)(=O)c1cc(OCC(N)=O)c(C)cc1Cl [CBK266443],85.9%,
CC(=O)NCc1cccc(-c2cncc(C(=O)Nc3ccc4c(c3)OCCO4)c2)c1 [CBK161009T],82.1%,
C/C(=N/OCO/N=C(\C)c1cccc([N+](=O)[O-])c1)c1cccc([N+](=O)[O-])c1 [CBK260872],89%,
O=C(/C=C/c1ccc2c(c1)OCO2)N1CCCC2(CCN(C(=O)c3ccoc3)C2)C1 (stereo not shown) [CBK131622],92.3%,
CN1CCC(Oc2nc3ccccc3nc2C(F)(F)F)CC1 [CBK113299],90.1%,
CC(C)(C)C(=O)NCCN1CCC(O)(c2ccc(F)cc2)CC1 [CBK283262],92%,
OC1(CN2CCCC2)COCCN(c2nnc(-c3ccccc3)s2)C1 (stereo not shown) [CBK306558],97.5%,
Fc1ccc(C2NC(S)=NC3=C2N2CCC3CC2)cc1 (stereo not shown) [CBK288390],95.4%,
COc1ccc(CCNc2nc3c([nH]2)c(=O)n(C)c(=O)n3C)cc1 [CBK269897],85.5%,
CC(=O)Nc1ccc(NC(=O)c2cnc(-c3ccc(F)cc3)c(-c3ccco3)c2)cc1 [CBK037977],98.8%,
Cc1ccc(S(=O)(=O)Cc2cccc(C(=O)N3CCN(Cc4ccccc4)CC3)c2)cc1 [CBK269596],93%,
Cc1cc(C)n(CC(=O)N2CCCC2c2cc3cccnc3[nH]2)n1 (stereo not shown) [CBK285074],97.1%,
O=C(Nc1cccnc1)c1cc2cc(F)ccc2[nH]1 [CBK107272],93.2%,
O=S(=O)(NCC1CCCO1)c1cccs1 (stereo not shown) [CBK044263],103%,
O=C(O)CCCC(=O)N1N=C(c2cccs2)CC1c1cn(-c2ccccc2)nc1-c1ccccc1 (stereo not shown) [CBK296124],90.3%,
Cc1[nH]ncc1C(=O)N1CCn2cc(C(F)(F)F)nc2C1 [CBK282307],87.7%,

Structure (SMILES),"viability at 28.5 h, 10 µM (% viability)","viability at 28.5 h, 10 µM"
O=C(O)c1csc(-c2ccc(Cl)cc2Cl)n1 [CBK067777],90%,
O=C(O)c1cc(-c2c[nH]c3ccc(Cl)cc23)[nH]n1 [CBK287257],95%,
COc1ccc(C(C)c2cc3c(cc2O)OCO3)cc1 (stereo not shown) [CBK200100],90.3%,
CC(C)Cc1nc(Cn2cnc3c(cnn3C)c2=O)no1 [CBK306256],90.7%,
Cc1ccc(OCC(=O)Nc2cccc3nsnc23)c(C)c1 [CBK263816],102%,
Oc1ccc2ccccc2c1/C=N/c1ccc(-c2cc(-c3ccc(/N=C/c4c(O)ccc5ccccc45)cc3)ncn2)cc1 [CBK261621],104%,
CC1CCc2c(sc(NC(=O)CCN3C(=O)c4ccccc4C3=O)c2C(N)=O)C1 (stereo not shown) [CBK263667],94.4%,
Cc1nc(SCc2cccc(C(=O)O)c2)nc2c1CCCC2 [CBK266997],87.3%,
COc1ccc(OCCNC(=O)c2ccc(-c3ccc(C(C)=O)s3)nc2N(C)C(C)=O)cc1 [CBK076576],95.5%,
COc1c(S(=O)(=O)N2CCN(Cc3ccc4c(c3)OCO4)CC2)ccc(Cl)c1Cl [CBK074423],91.8%,
CC(C)(C)C1=CC2=NC3(CCC3)C3C[C@@](C)(O)[C@@H](O)[C@@H]3N2O1 (stereo partly shown) [CBK303263],112%,
O=C(NCc1ccccc1)c1c(O)c2ccccc2n(Cc2ccccc2)c1=O [CBK291174],91.6%,
Cc1ccc([C@@]2(O)CC[C@@H]3CN(S(=O)(=O)C(C)C)C[C@@H]32)cc1 [CBK285297],97.8%,
NC(=O)NC(CC(=O)N1CCN(c2nccs2)CC1)c1cccc(Br)c1 (stereo not shown) [CBK304548],90.6%,
O=C(Nc1ccc(Cl)cc1)c1cccc(-n2cnnn2)c1 [CBK287791],,84.2%
CS(=O)(=O)N1CCC2(CC1)Cn1c(cc3ccccc31)C(=O)O2 [CBK282820],87.1%,
Cc1ccc(C(=O)Nc2ccc3[nH]ccc3c2)cc1Cl [CBK159677],85.5%,
O=C(NCCc1cnc[nH]1)NC1CCCCC1 [CBK269975],100%,
CCc1cccc(C)c1NC(=O)C1C2CCC(O2)C1C(=O)O (stereo not shown) [CBK263676],88.1%,
COc1ccc(C)cc1S(=O)(=O)N(C)CC(=O)O [CBK267863],106%,
COCCNc1nccnc1-c1cccs1 [CBK036739],100%,
O=C(NCCc1cccs1)Nc1cc(Cl)nc(Cl)c1 [CBK043762],87.2%,

Structure (SMILES),"viability at 28.5 h, 10 µM (% viability)","viability at 28.5 h, 10 µM"
O=S(=O)(Oc1ccc2ccccc2c1)c1ccc2c(c1)Cc1cc(S(=O)(=O)Oc3ccc4ccccc4c3)ccc1-2 [CBK262385],105%,
CNC(=O)c1cccc(NC(=O)c2cc(Br)cnc2NCC2CC2)c1 [CBK076380],95.5%,
O=C(Nc1cccc(-c2nc3ncccc3o2)c1)c1cccnc1Cl [CBK058695],92%,
Cn1cc(C2CNCCN2C(=O)c2csc3ccccc23)cn1 (stereo not shown) [CBK304324C],108%,
Cc1cccc(Cn2cnc(NC(=O)COc3ccc([N+](=O)[O-])c(C)c3)n2)c1 [CBK268177],118%,
CCN(CC)CCN1C(=O)C(O)=C(C(=O)c2cc3ccccc3o2)C1c1ccccn1 (stereo not shown) [CBK266413],86.1%,
CS(=O)(=O)N1CCc2cc(-c3csc(NCC(F)(F)F)n3)ccc21 [CBK305650],95.4%,
Cn1cc(CN2CCOC(c3nc(C(C)(C)C)cs3)C2)nn1 (stereo not shown) [CBK304783],90.5%,
NC(=O)c1c(NC(=O)c2cnn3cccnc23)sc2c1CCCC2 [CBK268437],87.8%,
Cc1cc(NC(=O)c2cc(Cl)ccc2[N+](=O)[O-])nc2c1c(=O)oc1ccccc12 [CBK291248],85.9%,
Cc1ccc(C)c(NC(=O)CSc2nnc(CCc3ccccc3)n2C)c1 [CBK266365],93.7%,
COCCn1c(=O)[nH]c2ncc(-c3ccc4c(c3)OCO4)nc21 [CBK064164],95.8%,
COc1ccc(NC(=O)CC2SC(NC3CCCCC3)=NC2=O)c(OC)c1 (stereo not shown) [CBK059502],93.7%,
Clc1ccc(SCc2cccc(CSc3ccc(Cl)c(Cl)c3)n2)cc1Cl [CBK223404],86.3%,
O=C(NCc1c(Cl)cccc1Cl)N1CCN(c2ccccc2)CC1 [CBK155194],98.5%,
Cc1ccc(CC(=O)N2CCCC2c2n[nH]cc2-c2ccncc2)cc1 (stereo not shown) [CBK283424],106%,
CN1CCC(OC(=O)COc2ccc(Cl)cc2Cl)CC1 [CBK266389C],91%,
COc1ccc(OCC(=O)Nc2ccc(CN3CCOCC3)cc2)cc1 [CBK269686],105%,
CCCn1nnc(NCc2ccc(Cl)cc2)n1 [CBK288089],97.2%,
Cc1nc(NS(=O)(=O)c2cc(Br)c(Cl)s2)sc1C(=O)O [CBK045560],96%,
O=C(Nc1nc(-c2ccc(S(=O)(=O)N3CCCC3)cc2)cs1)C1COc2ccccc2O1 (stereo not shown) [CBK096353],101%,
O=C(N/N=C/c1cc(Br)cc(Br)c1O)C(Oc1ccccc1)Oc1ccccc1 [CBK262164],95.6%,

Structure (SMILES),"viability at 28.5 h, 10 µM (% viability)","viability at 28.5 h, 10 µM"
Cc1ccc2[nH]c(-c3ccccc3NC(=O)CCCC(=O)O)nc2c1 [CBK295154],86%,
O=C1CC(c2ccccc2)c2c(n3ccsc3nc2=O)N1 (stereo not shown) [CBK287923],98.7%,
CC(=O)CSc1nnc(-c2ccc(F)cc2)o1 [CBK068327],110%,
CC(=O)NC(N(C)S(=O)(=O)c1ccc(C)cc1)C(Cl)(Cl)Cl (stereo not shown) [CBK262662],93.8%,
O=C(C1CCCN(C2CCN(Cc3ccccc3)CC2)C1)N1CCN(c2ccccc2)CC1 (stereo not shown) [CBK265440G],113%,
COc1ccc(C(=O)O)cc1N1C(=O)CC(c2c(C)nn(-c3ccccc3)c2N)C1=O (stereo not shown) [CBK291120],112%,
CC1(c2ccco2)NC(=O)N(Cc2ncc(-c3cccs3)o2)C1=O (stereo not shown) [CBK305398],98.8%,
Cc1ccc(S(=O)(=O)Nc2c(C(=O)N3CCOCC3)[nH]c3ccccc23)cc1 [CBK050066],88.7%,
O=C(c1ccccc1F)N1CCC(n2cnc3cccnc32)CC1 [CBK283937],87.5%,
CCCNC(=O)Cn1nc(CC)n2c(cc3sccc32)c1=O [CBK284030],89.3%,
Cc1cc2c(cc3c(=O)n(CC(=O)NC(C)(C)C)nc(C)n32)s1 [CBK284070],84.1%,
CNS(=O)(=O)c1cccc(C(C)NC(=O)N2CCC(COC)CC2)c1 (stereo not shown) [CBK304087],90.4%,
COc1nccc(N2CCC3(CC(=O)NC3=O)C2)c1C#N (stereo not shown) [CBK307246],108%,
Oc1cccc2ccc(/C=N/N=C/c3ccc4cccc(O)c4n3)nc12 [CBK261127],89.3%,
COC(=O)c1c(NC(=O)CC2Sc3ccccc3NC2=O)sc(C)c1C (stereo not shown) [CBK264429],103%,
CNS(=O)(=O)N1CCN(S(=O)(=O)NC)CC1 [CBK007064],93.7%,
FC(F)(F)c1ccc(Sc2cccc3ccccc23)nc1 [CBK089553],93.7%,
CCOC(=O)Cn1nc(-c2nonc2N)nc1-c1nonc1N [CBK265482],88.5%,
Cc1nn(C)c(N2CCNCC2)c1NC(=O)c1cc(-c2ccccc2)oc1C [CBK050356T],92.8%,
O=C/C(=C\Nc1ccc(S(=O)(=O)N2CCCCC2)cc1)c1nc2ccccc2o1 [CBK262281],99.2%,
C#CCN(C)CC[C@@H]1CC[C@H](O)[C@@H](C(=O)N2CCOCC2)O1 [CBK288723],108%,
Fc1ccc(C2C=C(c3ccc(F)cc3F)Nc3ncnn32)cc1 (stereo not shown) [CBK288095],99.7%,

# Source: paper PMC12040169 (PLOS Biology, 2025)
